Experimental data: EP3674287A1, “COCRYSTALS OF (R)-BACLOFEN” (Zaklady Farmaceutyczne "Polpharma" S.A., priority 2018, dated 2020)

Key:
[1] = Preliminary solubility study of (R)-Baclofen in 18 solvents; assay type: physicochemical; settings: for Solubility: 40 volume
Protocol: A preliminary study of (R)-Baclofen solubility was performed using different solvents (18 solvents) in order to design a proper experimental space to obtain or detect a new crystalline form.
Solubility test were performed with 25 mg of (R)-Baclofen in a test tube with screw cap and magnetic stirring. The solvent was added in small portions of 2 volumes (mg/ml) at room temperature up to 40 volumes. After each addition, the sample was stirred for 2-5 minutes.

[2] = pKa of the coformer; cited from earlier work
[3] = Solubility of prior-art crystal forms in water (EP2345634 B1); assay type: physicochemical; settings: 25°C
[4] = Crystalline stability test under accelerated ICH storage conditions (XRPD); assay type: physicochemical
Protocol: The expression "crystalline stability" means that no conversion into another crystalline form occurs, as determined by XRPD. […]
Crystalline stability study of the new cocrystals found during the screening was performed under accelerated ICH storage conditions (40°C, 75±5 % RH) for 1 week and 4 weeks. The results are summarized in the Table 16: Table 16: Crystalline stability of cocrystals

[5] = Chemical stability study under accelerated ICH storage conditions (HPLC); assay type: physicochemical; settings: for Chemical stability (HPLC): 40°C/ 75 ± 5 % RH, during 0, 1, 2 and 4 weeks; for Impurity CA1 (HPLC % a/a): RRT 0.48; for Impurity CA1 (HPLC % a/a) / Impurity A+Impurity CA2 (HPLC % a/a) / Impurity A (HPLC % a/a) / Impurity SA1 (HPLC % a/a) / Impurity B + Impurity FA1 (HPLC % a/a): 40 °C / 75 ± 5 % RH; for Impurity A+Impurity CA2 (HPLC % a/a) / Impurity A (HPLC % a/a): RRT 0.7; for Impurity SA1 (HPLC % a/a): RRT 0.33; for Impurity B + Impurity FA1 (HPLC % a/a): RRT 0.3
Protocol: Sample concentration : 5mg/5ml in ACN/H2O-0.1 methane sulfonic acid 20:80 Injection Volume: 10 µl; Run Time: 20.0 minutes; Column: […]100, 4.6x150 mm;100A,5µm; Mobile phase: gradient: ACN/H2O- 0.1 methane sulfonic acid 20:80 / ACN (95:5) -(75:25) - (95:5) Column temp.: 40°C; and Flow rate: 1 ml/min.
Samples were taken periodically (0 (start), after 1, 2, and 4 weeks) and analyzed by HPLC.
Retention time of (R)-Baclofen under conditions described in the Section "Measuring instruments, conditions and protocols" above, is about 13 min and the relative retention times (RRT) of known impurities are given below.

[6] = Coformer pKa and ΔpKa; assay type: physicochemical; settings: (R)-Baclofen versus coformer

Question: Which Solubility ([1]; Acetone, reflux) does the source give for `NC[C@H](CC(=O)O)c1ccc(Cl)cc1` [(R)-Baclofen, (3R)-4-amino-3-(4-chlorophenyl)butanoic acid] here?
Answer: Insoluble

Question: And the Solubility ([1]; Acetonitrile, reflux)?
Answer: Insoluble

Question: What about the Solubility ([1]; DMF, reflux) of the same molecule?
Answer: Soluble

Question: What about the Solubility ([1]; DMSO, reflux) of the same molecule?
Answer: Soluble

Question: And the Solubility ([1]; Dichloromethane, reflux)?
Answer: Insoluble

Question: What about the Solubility ([1]; Dioxane, reflux) of the same molecule?
Answer: Insoluble

Question: What about the Solubility ([1]; Ethanol, reflux) of the same molecule?
Answer: Insoluble

Question: What about the Solubility ([1]; Ethyl acetate, reflux) of the same molecule?
Answer: Insoluble

Question: And the Solubility ([1]; Heptane, reflux)?
Answer: Insoluble

Question: What about the Solubility ([1]; Isobutyl acetate, reflux) of the same molecule?
Answer: Insoluble

Question: And the Solubility ([1]; Isopropyl alcohol, reflux)?
Answer: Insoluble

Question: And the Solubility ([1]; Methanol, reflux)?
Answer: Insoluble

Question: And the Solubility ([1]; Methyl isobutyl ketone, reflux)?
Answer: Insoluble

Question: And the Solubility ([1]; THF, reflux)?
Answer: Insoluble

Question: And the Solubility ([1]; Tert-butyl methyl ether, reflux)?
Answer: Insoluble

Question: What about the Solubility ([1]; Toluene, reflux) of the same molecule?
Answer: Insoluble

Question: And the Solubility ([1]; Water, reflux)?
Answer: soluble

Question: And the Solubility ([1]; cyclohexane, reflux)?
Answer: Insoluble

Question: What about the “solubility in water and majority of commonly used organic solvents” value ([1]; overall conclusion of the solvent study) of the same molecule?
Answer: low solubility

Question: What about the Solubility ([1]; the other tested solvents (samples 4-18), even at reflux temperature) of the same molecule?
Answer: insoluble

Question: Which “Coformer [pKa]” value [2] does the source give for `O=C(O)/C=C/c1ccccc1` [Cinnamic acid, (2E)-3-phenylprop-2-enoic acid] here?
Answer: Cinnamic acid [pKa 4.10]

Question: With `NC[C@H](CC(=O)O)c1ccc(Cl)cc1` [Crystal Form B, (3R)-4-amino-3-(4-chlorophenyl)butanoic acid] as the molecule, how does the “solubility according to USP solubility test (descriptive term)” value [3] read?
Answer: sparingly soluble

Question: For `COc1cc(/C=C/C(=O)O)ccc1O` [Ferulic acid, (E)-3-(4-hydroxy-3-methoxy-phenyl)prop-2-enoic acid], which “Coformer [pKa]” value [2] is on record?
Answer: Ferulic acid [pKa 4.26]

Question: For `NCC(CC(=O)O)c1ccc(Cl)cc1.O=C(O)C=Cc1ccccc1` (stereo not shown) [Form III], which “Crystalline stability study 40 °C/ 75 ± 5 % RH After 1 week” value [4] is on record?
Answer: Stable

Question: And the “Crystalline stability study 40 °C/ 75 ± 5 % RH After 4 weeks” value [4]?
Answer: Stable

Question: What about the “Crystalline stability study 40 °C/ 75 ± 5 % RH After 4 weeks” value ([4]; listed as (R)-Baclofen-cinnamic acid cocrystal Form III) of the same molecule?
Answer: stable

Question: And the “Chemical stability (HPLC)” value [5]?
Answer: stable

Question: What about the “Impurity CA1 (HPLC % a/a)” value ([5]; week 0) of the same molecule?
Answer: 0.03 % a/a

Question: What about the “Impurity CA1 (HPLC % a/a)” value ([5]; week 1) of the same molecule?
Answer: 0.03 % a/a

Question: And the “Impurity CA1 (HPLC % a/a)” value ([5]; week 2)?
Answer: 0.03 % a/a

Question: And the “Impurity CA1 (HPLC % a/a)” value ([5]; week 4)?
Answer: 0.03 % a/a

Question: And the “Impurity A+Impurity CA2 (HPLC % a/a)” value ([5]; week 0, listed as Cocrystal Form III)?
Answer: 0.04 % a/a

Question: What about the “Impurity A+Impurity CA2 (HPLC % a/a)” value ([5]; week 1, listed as Cocrystal Form III) of the same molecule?
Answer: 0.04 % a/a

Question: What about the “Impurity A+Impurity CA2 (HPLC % a/a)” value ([5]; week 2, listed as Cocrystal Form III) of the same molecule?
Answer: 0.04 % a/a

Question: What about the “Impurity A+Impurity CA2 (HPLC % a/a)” value ([5]; week 4, listed as Cocrystal Form III) of the same molecule?
Answer: 0.04 % a/a

Question: What about the ΔpKa [6] of the same molecule?
Answer: -0.60

Question: Which results are given for `NCC(CC(=O)O)c1ccc(Cl)cc1.NCC(CC(=O)O)c1ccc(Cl)cc1.O=C(O)c1ccccc1` (stereo not shown) [Form II]?
Answer: Crystalline stability study 40 °C/ 75 ± 5 % RH After 1 week [4]: stable; Crystalline stability study 40 °C/ 75 ± 5 % RH After 4 weeks [4]: Stable; Crystalline stability study 40 °C/ 75 ± 5 % RH After 4 weeks ([4]; listed as (R)-Baclofen-benzoic acid cocrystal Form II): stable; Chemical stability (HPLC) [5]: stable; Impurity A (HPLC % a/a) ([5]; week 0): 0.02 % a/a; Impurity A (HPLC % a/a) ([5]; week 1): 0.02 % a/a; Impurity A (HPLC % a/a) ([5]; week 2): 0.02 % a/a; Impurity A (HPLC % a/a) ([5]; week 4): 0.02 % a/a; ΔpKa [6]: -0.3

Question: Which “Crystalline stability study 40 °C/ 75 ± 5 % RH After 4 weeks” value ([4]; listed as (R)-Baclofen-cinnamic acid cocrystal Form IV) does the source give for `NCC(CC(=O)O)c1ccc(Cl)cc1.O=C(O)C=Cc1ccccc1` (stereo not shown) [Form IV] here?
Answer: stable

Question: What about the “Impurity A+Impurity CA2 (HPLC % a/a)” value ([5]; week 0, listed as Cocrystal Form IV) of the same molecule?
Answer: 0.03 % a/a

Question: And the “Impurity A+Impurity CA2 (HPLC % a/a)” value ([5]; week 1, listed as Cocrystal Form IV)?
Answer: 0.03 % a/a

Question: What about the “Impurity A+Impurity CA2 (HPLC % a/a)” value ([5]; week 2, listed as Cocrystal Form IV) of the same molecule?
Answer: 0.03 % a/a

Question: And the “Impurity A+Impurity CA2 (HPLC % a/a)” value ([5]; week 4, listed as Cocrystal Form IV)?
Answer: 0.03 % a/a

Question: Which “Crystalline stability study 40 °C/ 75 ± 5 % RH After 1 week” value [4] does the source give for `COc1cc(C=O)ccc1O.NCC(CC(=O)O)c1ccc(Cl)cc1.NCC(CC(=O)O)c1ccc(Cl)cc1` (stereo not shown) [Form IX] here?
Answer: Unstable

Question: And the “Crystalline stability study 40 °C/ 75 ± 5 % RH After 4 weeks” value [4]?
Answer: Unstable

Question: What about the ΔpKa [6] of the same molecule?
Answer: -3.70

Question: Which “Crystalline stability study 40 °C/ 75 ± 5 % RH After 1 week” value [4] does the source give for `NCC(CC(=O)O)c1ccc(Cl)cc1.O=C(O)c1ccccc1O` (stereo not shown) [Form VIII] here?
Answer: Stable

Question: And the “Crystalline stability study 40 °C/ 75 ± 5 % RH After 4 weeks” value [4]?
Answer: Stable

Question: And the “Crystalline stability study 40 °C/ 75 ± 5 % RH After 4 weeks” value ([4]; listed as (R)-Baclofen-salicylic acid cocrystal Form VIII)?
Answer: stable

Question: And the “Chemical stability (HPLC)” value [5]?
Answer: stable

Question: And the “Impurity SA1 (HPLC % a/a)” value ([5]; week 0)?
Answer: 0.05 % a/a

Question: And the “Impurity SA1 (HPLC % a/a)” value ([5]; week 1)?
Answer: 0.05 % a/a

Question: What about the “Impurity SA1 (HPLC % a/a)” value ([5]; week 2) of the same molecule?
Answer: 0.05 % a/a

Question: And the “Impurity SA1 (HPLC % a/a)” value ([5]; week 4)?
Answer: 0.05 % a/a

Question: What about the “Impurity A (HPLC % a/a)” value ([5]; week 0) of the same molecule?
Answer: 0.04 % a/a

Question: What about the “Impurity A (HPLC % a/a)” value ([5]; week 1) of the same molecule?
Answer: 0.04 % a/a

Question: And the “Impurity A (HPLC % a/a)” value ([5]; week 2)?
Answer: 0.04 % a/a

Question: What about the “Impurity A (HPLC % a/a)” value ([5]; week 4) of the same molecule?
Answer: 0.04 % a/a

Question: What about the ΔpKa [6] of the same molecule?
Answer: 0.83

Question: Which “Crystalline stability study 40 °C/ 75 ± 5 % RH After 1 week” value [4] does the source give for `NCC(CC(=O)O)c1ccc(Cl)cc1.NCC(CC(=O)O)c1ccc(Cl)cc1.O=C(O)C=CC(=O)O` (stereo not shown) [Form VII] here?
Answer: Unstable

Question: And the “Crystalline stability study 40 °C/ 75 ± 5 % RH After 4 weeks” value [4]?
Answer: Unstable

Question: What about the ΔpKa [6] of the same molecule?
Answer: 0.77

Question: Which “Crystalline stability study 40 °C/ 75 ± 5 % RH After 1 week” value [4] does the source give for `COc1cc(C=CC(=O)O)ccc1O.NCC(CC(=O)O)c1ccc(Cl)cc1` [Form XII] here?
Answer: Stable

Question: What about the “Crystalline stability study 40 °C/ 75 ± 5 % RH After 4 weeks” value [4] of the same molecule?
Answer: Stable

Question: And the “Crystalline stability study 40 °C/ 75 ± 5 % RH After 4 weeks” value ([4]; listed as (R)-Baclofen-ferulic acid cocrystal Form XII)?
Answer: stable

Question: And the “Chemical stability (HPLC)” value [5]?
Answer: stable

Question: What about the “Impurity A+Impurity CA2 (HPLC % a/a)” value ([5]; Form XII table, week 0) of the same molecule?
Answer: 0.05 % a/a

Question: What about the “Impurity A+Impurity CA2 (HPLC % a/a)” value ([5]; Form XII table, week 1) of the same molecule?
Answer: 0.04 % a/a

Question: What about the “Impurity A+Impurity CA2 (HPLC % a/a)” value ([5]; Form XII table, week 2) of the same molecule?
Answer: 0.05 % a/a

Question: What about the “Impurity A+Impurity CA2 (HPLC % a/a)” value ([5]; Form XII table, week 4) of the same molecule?
Answer: 0.05 % a/a

Question: And the “Impurity B + Impurity FA1 (HPLC % a/a)” value ([5]; week 0)?
Answer: 0.07 % a/a

Question: And the “Impurity B + Impurity FA1 (HPLC % a/a)” value ([5]; week 1)?
Answer: 0.07 % a/a

Question: What about the “Impurity B + Impurity FA1 (HPLC % a/a)” value ([5]; week 2) of the same molecule?
Answer: 0.08 % a/a

Question: And the “Impurity B + Impurity FA1 (HPLC % a/a)” value ([5]; week 4)?
Answer: 0.07 % a/a

Question: For `COc1cc(C=O)ccc1O` [Vanillin], which “Coformer [pKa]” value [2] is on record?
Answer: Vanillin [pKa 7.5]
